# Results from US20260265256A1 (IMPACT THERAPEUTICS (SHANGHAI), INC., priority 2023, published 2026).
# Assays:
# [1] = biological target: recombinant poly(ADP-ribose) polymerase 2 (PARP2) (Homo sapiens, UniProt Q9UGN5); experiment: PARP2 chemiluminescent assay; type: biochemical; details: PARP2 enzyme activity, chemiluminescence, 40 ng enzyme/well
# Experimental: The solution of recombinant poly(ADP-ribose) polymerase 1 and 2 (PARP1 and PARP2) (40 ng enzyme/well) and the compounds to be tested were mixed, respectively. The solutions were added to a 96-well plate coated with histone mixture, incubated at room temperature for 1 h, then 50 μL 0.3 ng/mL Streptavidin-HRP was added to each well. The plates were incubated for 30 minutes at room temperature. Finally, the plates were treated with streptavidin-HRP followed by addition of the ELISA ECL substrate to produce chemiluminescence that can be measured using a chemiluminescence reader. Inhibition of the tested compound to PARP1/2 enzyme activity was calculated according to the following formula. [formula] IC50 value is obtained by fitting the s-shaped dose response curve equation by using XL Fit software.
# [2] = test system: MDA-MB-436 cells; experiment: Growth inhibition assay against BRCA mutant human breast cancer MDA-MB-436 cell line (CCK-8, 7 days); type: cell-based; details: 168 h, MDA-MB-436, 7 days, read-out: IC50 (nM), proliferation of human breast cancer cells MDA-MB-436
# Experimental: The cells were cultured in complete medium (DMEM medium+10% FBS+Insulin+glutathione). When the confluence reached about 80%, cells were digested and gently dispensed from the bottom of the dish with a 1 mL pipette. Cell suspension was collected and centrifuged at 500 rpm for 3 min. The supernatant was discarded, and the cell pellet were re-suspended in complete medium. The cells were seeded into a culture dish at an appropriate proportion, and then cultured in a 5% CO2 incubator at 37° C. The assay was carried out when the cells were in optimum condition and the confluence was reached 80%. Cells in the logarithmic growth phase were taken to centrifugate, and the culture supernatant was removed. The cells were resuspended in refresh complete medium and counted. The resuspended cells were seeded at 3000/well in a 96-well plate and incubated at 37° C., 5% CO2 incubator overnight. […] The solution was mixed by oscillation. 0.10% DMSO was used as the control.
# The next day, the 96-well plate inoculated with cells was taken out from the incubator, and the culture supernatant was removed. Then fresh medium of 195 uL/well and 5 μL/well of 40× test compound solution as mentioned above were added into the 96 well plate, respectively. Finally, the plate was incubated for 7 days in a 37° C. 5% CO2 incubator. The medium containing compound was changed on the fourth day. After 7 days, 20 μL of CCK-8 was added to each well and shaken gently, then was cultured for 4 hours. The plate was shaken for 5 min after incubation, the absorbance values of 450 nm or 650 nm wavelengths were recorded respectively (OD=absorbance value of 450 nm−absorbance value of 650 nm) by using the multifunction readout instrument.
# Data were analyzed by software GraphPad Prism 6.0. The inhibitory activity of compounds on cell proliferation was plotted using cell survival rate against the compound concentration as coordinates. Cell survival rate %=(ODcompound−ODbackground)/(ODDMSO−ODbackground)×100.
# Table 2 summarizes the inhibitory effect data (IC50) of the compounds on the proliferation of human breast cancer cells MDA-MB-436.
# [3] = biological target: T1, PDE3A (Homo sapiens, UniProt Q14432); experiment: PDE3A fluorescence polarization (FP) assay; type: biochemical; details: 2 nM PDE3A, 0.2 μM FAM-cAMP, read-out: IC50 (μM), PDE3A enzyme activity
# T1 construct: purchased Sino Biological 11908-H20B1
# Experimental: A PDE3A fluorescence polarization (FP) assay in a multi-step format was performed using black, round bottom 384-well plates (Corning, 4514). The testing compounds were serially diluted from stock solutions to 11 concentrations with a 3-fold dilution factor using DMSO. Fifty nL of compound dilutions was mixed with 5 μL of reaction buffer (10 mM Tris-HCl, pH 7.2, 10 mM MgCl2, 0.05% NaN3, 0.1% phosphate-free BSA) containing 0.2 μM FAM-cAMP (BPS, 60200) and 2 nM PDE3A (Sino Biological, 11908-H20B1) enzyme, and incubated for 60 min at 25° C. Afterwards, 15 μL binding agent mixture (Molecular Devices, R8124) was added to each well and the plate was incubated for 60 min at 25° C. The plate was loaded to a BMG PHERAstar FSX to read Fluorescence Polarization (FP) values at a setting of: Ex: 485 nm and Em: 520 nm. Emission light intensity with polarizers parallel (Em|) and emission light intensity with polarizers perpendicular (Em⊥) were recorded. The Polarization (mP) values were calculated using the following formula: mP=(SignalEm|−SignalEm⊥)/(SignalEm|+SignalEm⊥).
# Data analysis: • 1) The inhibition % of a compound dose is calculated as:
# [formula] • wherein mPMin and mPMax refer to the polarization readings in the condition of substrate only and substrate+enzyme, respectively. • 2) The IC50 values were calculated from non-linear curve fitting using following regression equation using a commercial curve fitting software GraphPad Prism 9.2.0.
# wherein X refers to Log of compound concentration and Y refers to % Inhibition.
# Table 3 summarize the inhibitory effects of compounds on PDE3A enzyme activity (IC50).
# Chain of recombinant poly(ADP-ribose) polymerase 2 (PARP2) (Q9UGN5 whole entry): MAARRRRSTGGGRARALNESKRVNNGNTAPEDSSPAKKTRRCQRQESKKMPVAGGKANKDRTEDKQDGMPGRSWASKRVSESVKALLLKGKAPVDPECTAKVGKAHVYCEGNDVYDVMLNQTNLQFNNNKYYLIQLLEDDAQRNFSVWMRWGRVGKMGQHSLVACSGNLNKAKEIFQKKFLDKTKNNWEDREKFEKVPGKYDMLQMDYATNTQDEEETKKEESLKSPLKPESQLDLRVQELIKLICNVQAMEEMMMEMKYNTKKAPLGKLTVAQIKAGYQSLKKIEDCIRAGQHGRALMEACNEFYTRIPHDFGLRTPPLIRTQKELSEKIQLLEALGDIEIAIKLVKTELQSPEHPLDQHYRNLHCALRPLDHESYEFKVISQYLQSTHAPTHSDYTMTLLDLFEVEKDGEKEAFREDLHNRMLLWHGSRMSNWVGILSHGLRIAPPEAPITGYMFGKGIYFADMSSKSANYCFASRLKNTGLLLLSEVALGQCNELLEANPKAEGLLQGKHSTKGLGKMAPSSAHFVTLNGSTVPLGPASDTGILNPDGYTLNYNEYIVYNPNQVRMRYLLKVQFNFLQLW
# T1 sequence (Q14432 669-1141 limits assumed): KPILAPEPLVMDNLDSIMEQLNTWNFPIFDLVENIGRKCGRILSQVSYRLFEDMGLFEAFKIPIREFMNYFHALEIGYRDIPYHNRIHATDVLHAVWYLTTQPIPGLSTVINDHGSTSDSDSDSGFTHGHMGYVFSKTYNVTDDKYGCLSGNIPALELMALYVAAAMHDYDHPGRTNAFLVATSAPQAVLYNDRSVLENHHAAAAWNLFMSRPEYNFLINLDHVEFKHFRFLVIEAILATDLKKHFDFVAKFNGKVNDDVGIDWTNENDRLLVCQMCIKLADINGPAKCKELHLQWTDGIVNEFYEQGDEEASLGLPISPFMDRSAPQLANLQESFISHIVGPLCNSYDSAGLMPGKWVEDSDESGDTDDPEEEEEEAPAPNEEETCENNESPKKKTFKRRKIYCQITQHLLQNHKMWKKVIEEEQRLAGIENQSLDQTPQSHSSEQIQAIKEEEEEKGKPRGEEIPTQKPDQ
Structure (SMILES),IC50 [1],IC50 [2],IC50 [3]
"CNC(=O)c1ccc(-n2ncc3c2CN(Cc2ccc4c([nH]c(=O)c5c(C)cnn54)c2F)C3)cn1 [Example 1-2, 5-(5-((6-fluoro-3-methyl-4-oxo-4,5-dihydropyrazolo[1,5-a]quinoxalin-7-yl)methyl)-5,6-dihydropyrrolo[3,4-c]pyrazol-1(4H)-yl)-N-methylpicolinamide]",> 1000 nM,> 100 nM,> 25 µM
"CNC(=O)c1ccc(-n2cc3c(n2)CN(Cc2ccc4c([nH]c(=O)c5c(F)cnn54)c2F)C3)cn1 [Example 13, 5-(5-((3,6-difluoro-4-oxo-4,5-dihydropyrazolo[1,5-a]quinoxalin-7-yl)methyl)-5,6-dihydropyrrolo[3,4-c]pyrazol-2(4H)-yl)-N-methylpicolinamide]",42 nM,0.99 nM,> 30 µM
"CNC(=O)c1ccc(-n2cc3c(n2)CN(Cc2ccc4c([nH]c(=O)c5c(F)cnn54)c2F)C3)c(Cl)n1 [Example 16, 5-(5-((3,6-difluoro-4-oxo-4,5-dihydropyrazolo[1,5-a]quinoxalin-7-yl)methyl)-5,6-dihydropyrrolo[3,4-c]pyrazol-2(4H)-yl)-6-chloro-N-methylpicolinamide]",1190 nM,5.65 nM,> 30 µM
"CNC(=O)c1ccc(-n2cc3c(n2)CN(Cc2ccc4c([nH]c(=O)c5nn(C)cc54)c2F)C3)cn1 [Example 29, 5-(5-((6-fluoro-2-methyl-4-oxo-4,5-dihydro-2H-pyrazolo[3,4-c]quinolin-7-yl)methyl)-5,6-dihydropyrrolo[3,4-c]pyrazol-2(4H)-yl)-N-methylpicolinamide]",> 10000 nM,1.57 nM,> 30 µM
"CNC(=O)c1ccc(-n2cc3c(c2)CN(Cc2ccc4c([nH]c(=O)c5c(F)cnn54)c2F)C3)cn1 [Example 48, 5-(5-((3,6-difluoro-4-oxo-4,5-dihydropyrazolo[1,5-a]quinoxalin-7-yl)methyl)-5,6-dihydropyrrolo[3,4-c]pyrrol-2(4H)-yl)-N-methylpicolinamide]",48 nM,0.38 nM,> 30 µM
"CNC(=O)c1ccc(-n2cc3c(n2)CN(Cc2ccc4c([nH]c(=O)n5cc(C)nc45)c2F)C3)c(F)n1 [Example 51, 6-fluoro-5-(5-((7-fluoro-2-methyl-5-oxo-5,6-dihydroimidazo[1,2-c]quinazolin-8-yl)methyl)-5,6-dihydropyrrolo[3,4-c]pyrazol-2(4H)-yl)-N-methylpicolinamide]",> 10000 nM,1.51 nM,> 30 µM
"CNC(=O)c1ccc(-n2cc3c(n2)CN(Cc2ccc4c([nH]c(=O)c5occc54)c2F)C3)c(F)n1 [Example 54, 6-fluoro-5-(5-((6-fluoro-4-oxo-4,5-dihydrofuro[2,3-c]quinolin-7-yl)methyl)-5,6-dihydropyrrolo[3,4-c]pyrazol-2(4H)-yl)-N-methylpicolinamide]",255 nM,1.47 nM,> 30 µM
CNC(=O)c1ccc(N2CC3=C(CN(Cc4ccc5c([nH]c(=O)c6c(F)cnn65)c4F)C3)C2)c(F)n1 [Example 58],,2.97 nM,2.41 µM

# The next lines start with the values.
IC50 [1],IC50 [2],IC50 [3],Structure (SMILES)
> 10000 nM,2.07 nM,> 30 µM,"CCNC(=O)c1ccc(-n2cc3c(n2)CN(Cc2ccc4c([nH]c(=O)c5c(C)cnn54)c2F)C3)cn1 [Example 6, 5-(5-((6-fluoro-3-methyl-4-oxo-4,5-dihydropyrazolo[1,5-a]quinoxalin-7-yl)methyl)-5,6-dihydropyrrolo[3,4-c]pyrazol-2(4H)-yl)-N-ethylpicolinamide]"
373 nM,1.36 nM,> 30 µM,"CNC(=O)c1ccc(-n2cc3c(n2)CN(Cc2ccc4c([nH]c(=O)c5c(F)cnn54)c2F)C3)c(F)n1 [Example 15, 5-(5-((3,6-difluoro-4-oxo-4,5-dihydropyrazolo[1,5-a]quinoxalin-7-yl)methyl)-5,6-dihydropyrrolo[3,4-c]pyrazol-2(4H)-yl)-6-fluoro-N-methylpicolinamide]"
> 10000 nM,1.57 nM,> 30 µM,"CCNC(=O)c1ccc(-n2cc3c(n2)CN(Cc2ccc4c([nH]c(=O)c5c(F)cnn54)c2F)C3)c(F)n1 [Example 19, 5-(5-((3,6-difluoro-4-oxo-4,5-dihydropyrazolo[1,5-a]quinoxalin-7-yl)methyl)-5,6-dihydropyrrolo[3,4-c]pyrazol-2(4H)-yl)-N-ethyl-6-fluoropicolinamide]"
119 nM,0.76 nM,29.4 µM,"CNC(=O)c1ccc(-n2cc3c(n2)CN(Cc2ccc4c([nH]c(=O)c5occc54)c2F)C3)cn1 [Example 28, 5-(5-((6-fluoro-4-oxo-4,5-dihydrofuro[2,3-c]quinolin-7-yl)methyl)-5,6-dihydropyrrolo[3,4-c]pyrazol-2(4H)-yl)-N-methylpicolinamide]"
118 nM,6.04 nM,> 30 µM,"CNC(=O)c1ccc(-c2nc3c(s2)CN(Cc2ccc4c([nH]c(=O)c5c(F)cnn54)c2F)C3)cn1 [Example 42, 5-(5-((3,6-difluoro-4-oxo-4,5-dihydropyrazolo[1,5-a]quinoxalin-7-yl)methyl)-5,6-dihydro-4H-pyrrolo[3,4-d]thiazol-2-yl)-N-methylpicolinamide]"
,0.71 nM,> 30 µM,"CNC(=O)c1ccc(-n2cc3c(n2)CN(Cc2ccc4c([nH]c(=O)n5cc(C)nc45)c2F)C3)cn1 [Example 49, 5-(5-((7-fluoro-2-methyl-5-oxo-5,6-dihydroimidazo[1,2-c]quinazolin-8-yl)methyl)-5,6-dihydropyrrolo[3,4-c]pyrazol-2(4H)-yl)-N-methylpicolinamide]"
,0.92 nM,> 30 µM,"CCNC(=O)c1ccc(-n2cc3c(n2)CN(Cc2ccc4c([nH]c(=O)n5cc(C)nc45)c2F)C3)c(F)n1 [Example 52, N-ethyl-6-fluoro-5-(5-((7-fluoro-2-methyl-5-oxo-5,6-dihydroimidazo[1,2-c]quinazolin-8-yl)methyl)-5,6-dihydropyrrolo[3,4-c]pyrazol-2(4H)-yl)picolinamide]"
403 nM,0.81 nM,> 30 µM,"CCNC(=O)c1ccc(-n2cc3c(n2)CN(Cc2ccc4c([nH]c(=O)c5occc54)c2F)C3)c(F)n1 [Example 55, N-ethyl-6-fluoro-5-(5-((6-fluoro-4-oxo-4,5-dihydrofuro[2,3-c]quinolin-7-yl)methyl)-5,6-dihydropyrrolo[3,4-c]pyrazol-2(4H)-yl)picolinamide]"
> 10000 nM,1.56 nM,> 30 µM,"CCNC(=O)c1ccc(-n2cc3c(n2)CN(Cc2ccc4c([nH]c(=O)c5cc(F)nn54)c2F)C3)c(F)n1 [Example 57, 5-(5-((2,6-difluoro-4-oxo-4,5-dihydropyrazolo[1,5-a]quinoxalin-7-yl)methyl)-5,6-dihydropyrrolo[3,4-c]pyrazol-2(4H)-yl)-N-ethyl-6-fluoropicolinamide]"
